Reference: patent publication US11104632B1, “Metabolically stable vanillin derivatives for the treatment of hypoxia” (King Abdulaziz University, priority 2020, dated 2021)

What was measured:
Hb [1] = biological target: T1, Hb (Homo sapiens, UniProt P68871+P69905, E7V); experiment: Hb adduct formation study by cation-exchange HPLC after incubation with intact SS cells; assay type: cell-based; conditions: 2 mM and/or 5 mM
T1 construct: Leftover blood samples from patients with homozygous SS were obtained and utilized; from tissue; host or cells: blood (red blood cells) of patients with homozygous SS
Experimental: Experimental Procedure: The MMA series of compounds (MMA-202, MMA-204, and MMA-405) and the positive control vanillin were studied for their abilities to inhibit hypoxia-induced RBC sickling (RBC morphology study), increase Hb oxygen, and/or modify Hb (adduct formation) as previously published.^31,33 Briefly, homozygous SS blood (hematocrit: 20%) suspensions were incubated under air in the absence or presence of 2 and/or 5 mM concentration of test compounds at 37° C. for 1 hr. Following, the suspensions were incubated under hypoxic condition (2.5% oxygen) at 37° C. for 2 hr. Aliquot samples were fixed with 2% glutaraldehyde solution without exposure to air, and then subjected to microscopic morphological analysis. The residual samples were washed in phosphate-buffered saline, and hemolyzed in hypotonic lysis buffer for the Hb oxygen equilibrium and Hb adduct experiments. […] Another aliquot from the lysate was also subjected to Hb adduct formation study using cation-exchange HPLC (Hitachi D-7000 Series, Hitachi Instruments, Inc., San Jose, Calif.) with a weak cation-exchange column (Poly CAT A: 30 mm×4.6 mm, Poly LC, Inc., Columbia, Md.). […]

intact SS cells = experiment: Antisickling study (RBC morphology) under hypoxia with homozygous SS blood; assay type: cell-based, human; conditions: SS blood hematocrit 20%, 2.5% oxygen, 37° C., 2 hr
Experimental: (§1) In vitro Hemoglobin Modification, Oxygen Equilibrium and Antisickling Studies Using Human homozygous Sickle cell (SS) Blood
(§2) Materials and General Procedure: Leftover blood samples from patients with homozygous SS were obtained and utilized, based on an approved IRB protocol at the Children's Hospital of Philadelphia, with informed consent.
Following, the suspensions were incubated under hypoxic condition (2.5% oxygen) at 37° C. for 2 hr. Aliquot samples were fixed with 2% glutaraldehyde solution without exposure to air, and then subjected to microscopic morphological analysis. The residual samples were washed in phosphate-buffered saline, and hemolyzed in hypotonic lysis buffer for the Hb oxygen equilibrium and Hb adduct experiments. […] Another aliquot from the lysate was also subjected to Hb adduct formation study using cation-exchange HPLC (Hitachi D-7000 Series, Hitachi Instruments, Inc., San Jose, Calif.) with a weak cation-exchange column (Poly CAT A: 30 mm×4.6 mm, Poly LC, Inc., Columbia, Md.). To determine the binding of the MMA compounds to either α- or β-globin chains, the hemolysates were subjected to reversed-phase (RP) HPLC on a Hitachi D-7000 HSM Series, using a Jupiter 5 μm C-4 50×4.6 mm column, (Phenomenex®, Torrence, Calif.) and a gradient from 20% to 60% acetonitrile in 0.3% trifluoroacetic acid in 15 minutes, with UV detection at 215 nm.

Hb [2] = biological target: T1, Hb; experiment: Hb oxygen equilibrium study (P50 shift, Hemox Analyzer) on lysate of treated SS cells; assay type: cell-based; conditions: intact SS cells, read-out: increase in Hb oxygen affinity (ΔP50); for percent P50 decrease (increase in Hb oxygen affinity) at 2000 µM: 2 mM compound; for percent P50 decrease (increase in Hb oxygen affinity) at 5000 µM: 5 mM compound
Description: as §1, §2
(§3) Experimental Procedure: The MMA series of compounds (MMA-202, MMA-204, and MMA-405) and the positive control vanillin were studied for their abilities to inhibit hypoxia-induced RBC sickling (RBC morphology study), increase Hb oxygen, and/or modify Hb (adduct formation) as previously published.^31,33 Briefly, homozygous SS blood (hematocrit: 20%) suspensions were incubated under air in the absence or presence of 2 and/or 5 mM concentration of test compounds at 37° C. for 1 hr. Following, the suspensions were incubated under hypoxic condition (2.5% oxygen) at 37° C. for 2 hr. Aliquot samples were fixed with 2% glutaraldehyde solution without exposure to air, and then subjected to microscopic morphological analysis. The residual samples were washed in phosphate-buffered saline, and hemolyzed in hypotonic lysis buffer for the Hb oxygen equilibrium and Hb adduct experiments. […] Another aliquot from the lysate was also subjected to Hb adduct formation study using cation-exchange HPLC (Hitachi D-7000 Series, Hitachi Instruments, Inc., San Jose, Calif.) with a weak cation-exchange column (Poly CAT A: 30 mm×4.6 mm, Poly LC, Inc., Columbia, Md.). To determine the binding of the MMA compounds to either α- or β-globin chains, the hemolysates were subjected to reversed-phase (RP) HPLC on a Hitachi D-7000 HSM Series, using a Jupiter 5 μm C-4 50×4.6 mm column, (Phenomenex®, Torrence, Calif.) and a gradient from 20% to 60% acetonitrile in 0.3% trifluoroacetic acid in 15 minutes, with UV detection at 215 nm.

α- or β-globin chains = biological target: T2, α- or β-globin chains (Homo sapiens, UniProt P68871+P69905, E7V); experiment: Reversed-phase HPLC of hemolysates for binding to α- or β-globin chains; assay type: cell-based; conditions: reverse-phase HPLC; 2 mM and/or 5 mM; intact SS cells
T2 construct: Leftover blood samples from patients with homozygous SS were obtained and utilized; from tissue; host or cells: blood (red blood cells) of patients with homozygous SS
Experimental: as §3

[3] = in-vivo; aldehyde protected by L-cysteine; cited from earlier work
Hb [4] = biological target: Hb (Homo sapiens, UniProt P68871+P69905); experiment: In vitro time-dependent Hb oxygen equilibrium study using normal whole blood; conditions: 2 mM; normal whole blood 30% hct; 37° C.; 1, 4 and 24 hr

Row | melting point [°C] | SMILES | Hb modification (adduct formation) (Hb [1]) | RBC sickling (intact SS cells; 2 mM compound) [%] | RBC sickling (intact SS cells; 5 mM compound) [%] | percent P50 decrease (increase in Hb oxygen affinity) at 2000 µM (Hb [2]) [%] | percent P50 decrease (increase in Hb oxygen affinity) at 5000 µM (Hb [2]) [%] | globin chain bound (α- or β-globin chains) | extension of Vanillin half-life [3] [fold] | RBC sickling (intact SS cells; 1 mM compound) [%] | time course of Hb oxygen affinity activity (% P50 shift) over 24 hr (Hb [4])
1 | – | C=CC(=O)c1ccc(OC2CCCCO2)cc1 (centres unmarked) [MMA-205, 1-(4-((tetrahydro-2H-pyran-2-yl)oxy)phenyl)prop-2-en-1-one] | significant Hb modification | 46 | 27 | 21 | 39 | bind exclusively with the β-chain | – | – | –
2 | – | COc1cc(C=O)ccc1O [vanillin] | – | 57 | 36 | 12 | 27 | – | – | – | –
3 | – | COc1cc(C2NC(C(=O)O)CS2)ccc1O (centres unmarked) [thiazolidine complex of Vanillin] | – | – | – | – | – | – | 2 | – | –
4 | 146 | COc1ccc(C(=O)C(N)=O)cc1 [MMA-203, 2-(4-methoxyphenyl)-2-oxoacetamide] | – | – | – | – | – | – | – | – | –
5 | – | C#CC(=O)c1ccc(OC)cc1 [MMA-204, 1-(4-methoxyphenyl)prop-2-yn-1-one] | – | 57 | 44 | 29 | 62 | bind exclusively with the β-chain | – | – | –
6 | – | C=CC(=O)c1ccc(OC)cc1 [MMA-202, 1-(4-methoxyphenyl)prop-2-en-1-one] | significant Hb modification | 28 | 15 | 13 | 51 | bind to both the α-chain and β-chain | – | 48 | sustained throughout the 24 hr experiment
7 | 49 | COC(=O)C(=O)c1ccc(OC)cc1 [MMA-201, methyl 2-(4-methoxyphenyl)-2-oxoacetate] | – | – | – | – | – | – | – | – | –
